Measured values: ChEMBL document CHEMBL1129143, “Synthesis and acetylcholinesterase inhibitory activity of fluorinated analogues of huperzine A” (Bioorg Med Chem Lett, 1996)

These molecules were tested against Acetylcholinesterase (Homo sapiens, UniProt P22303) (assay: In vitro inhibitory activity against Acetylcholinesterase (AChE).).
Sequence of Acetylcholinesterase (P22303 whole entry): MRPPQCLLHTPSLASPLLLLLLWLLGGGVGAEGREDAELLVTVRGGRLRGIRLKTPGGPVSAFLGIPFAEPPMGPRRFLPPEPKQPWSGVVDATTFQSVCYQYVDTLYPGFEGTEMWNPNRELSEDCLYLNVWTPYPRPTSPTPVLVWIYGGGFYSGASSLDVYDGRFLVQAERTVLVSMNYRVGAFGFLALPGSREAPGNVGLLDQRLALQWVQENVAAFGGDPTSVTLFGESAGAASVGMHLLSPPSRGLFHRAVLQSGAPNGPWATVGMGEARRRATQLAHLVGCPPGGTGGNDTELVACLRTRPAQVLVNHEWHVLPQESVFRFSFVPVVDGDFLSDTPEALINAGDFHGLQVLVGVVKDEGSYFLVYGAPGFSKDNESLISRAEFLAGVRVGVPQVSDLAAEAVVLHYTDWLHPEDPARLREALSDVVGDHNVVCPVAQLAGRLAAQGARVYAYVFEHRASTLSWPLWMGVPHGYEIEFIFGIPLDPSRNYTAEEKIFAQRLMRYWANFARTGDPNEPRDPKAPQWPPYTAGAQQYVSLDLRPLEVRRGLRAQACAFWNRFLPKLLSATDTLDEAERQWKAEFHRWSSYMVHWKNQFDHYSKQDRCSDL

| Structure (SMILES) | IC50 [nM] |
| --- | --- |
| NC12CC(C(F)(F)F)=CC(Cc3nc(O)ccc31)/C2=C\C(F)(F)F (stereo not drawn) | 3000 |
| C/C=C1\C2C=C(C(F)(F)F)CC1(N)c1ccc(=O)[nH]c1C2 (stereo not drawn) | 400 |
| CC1=CC2Cc3nc(O)ccc3C(N)(C1)/C2=C/C(F)(F)F (stereo not drawn) | 2000 |
